For series [1], the system named is ATCC 700603. The series can be described thus: In vitro MIC, broth micro dilution. The series is classed as cell-based. Particulars: ATCC700603; Staphylococcus pyogens ATCC 700603. On the procedure: (§1) The in vitro (MIC) antibacterial activity of the compounds against susceptible Gram-positive, multidrug resistant Gram-positive and Gram-negative was tested as growth inhibition with the use of broth micro dilution method according to the guidelines of Clinical and Laboratory Standards Institute (formerly National Committee for Clinical Laboratory Standards). Compounds were dissolved in DMSO and water was added to get stock solution in 80% DMSO. The working solution was prepared by diluting the stock solution 1:10 times in 4-8% DMSO in water or medium, and the dissolved compounds were evaluated in the concentrations of 0.125, 0.25, 0.5, 1, 2, 4, 8, and 16 μg/mL and the concentration was finally expressed in μM.

In series [2] the test system is Bacillus cereus ATCC 11778. Briefly: In vitro MIC, broth micro dilution. The settings on record: ATCC11778. The series is classed as cell-based. The procedure: as §1
The test system of series [3] is Bacillus pumilis ATCC 14884. The series can be described thus: In vitro MIC, broth micro dilution. It is filed as cell-based. Particulars: ATCC14884. On the procedure:
as §1

The test system of series [4] is Enterococcus faecalis ATCC 14506. The series can be described thus: In vitro MIC, broth micro dilution. It is filed as cell-based. The settings on record: ATCC14506. On the procedure:
as §1

For series [5], the system named is Enterococcus faecalis ATCC 35550. The series can be described thus: In vitro MIC, broth micro dilution. The settings on record: ATCC35550. The series is classed as cell-based. The procedure: as §1
Series [6] has as its system Enterococcus faecalis ATCC 700802. Briefly: In vitro MIC, broth micro dilution. The series is classed as cell-based. The settings on record: ATCC700802. The procedure:
as §1

Series [7] has as its system Enterococcus faecium ATCC 51559. Briefly: In vitro MIC, broth micro dilution. The series is classed as cell-based. The settings on record: ATCC51559. On the procedure: as §1
Series [8] relates to Enterococcus faecium ATCC 700221. The series can be described thus: In vitro MIC, broth micro dilution. The series is classed as cell-based. The settings on record: ATCC700221. On the procedure:
as §1

Series [9] relates to Klebsiella pneumoniae ATCC 10031. The series can be described thus: In vitro MIC, broth micro dilution. Particulars: ATCC10031. The series is classed as cell-based. On the procedure: as §1
Series [10] relates to Klebsiella pneumoniae ATCC 700571. Briefly: In vitro MIC, broth micro dilution. The settings on record: ATCC700571. The series is classed as cell-based. The procedure: as §1
Series [11] has as its system Pseudomonas aeruginosa ATCC 27853. Briefly: In vitro MIC, broth micro dilution. The settings on record: ATCC27853. The series is classed as cell-based. On the procedure: as §1
Series [12] concerns Staphylococcus aureus ATCC 14154. The series can be described thus: In vitro MIC, broth micro dilution. It is filed as cell-based. Particulars: ATCC14154. The procedure: as §1
Series [13] has as its system Staphylococcus aureus ATCC 25923. The series can be described thus: In vitro MIC, broth micro dilution. The series is classed as cell-based. The settings on record: ATCC25923. On the procedure:
as §1

Series [14] relates to Staphylococcus aureus ATCC 29213. Briefly: In vitro MIC, broth micro dilution. The settings on record: ATCC29213. The series is classed as cell-based. The procedure: as §1
Series [15] deals with Staphylococcus aureus ATCC 700699. The series can be described thus: In vitro MIC, broth micro dilution. The series is classed as cell-based. Particulars: ATCC700699. The procedure: as §1
The test system of series [16] is Staphylococcus aureus ATCC 9144. Briefly: In vitro MIC, broth micro dilution. It is filed as cell-based. Particulars: ATCC9144. The procedure: as §1
For series [17], the system named is Staphylococcus epidermidis ATCC 155. Briefly: In vitro MIC, broth micro dilution. The series is classed as cell-based. The settings on record: ATCC155. On the procedure:
as §1

For series [18], the system named is Streptococcus pneumoniae ATCC 700904. Briefly: In vitro MIC, broth micro dilution. The series is classed as cell-based. Particulars: ATCC700904. On the procedure: as §1
Series [19] has as its system Streptococcus pyogens ATCC 14289. The series can be described thus: In vitro MIC, broth micro dilution. The settings on record: ATCC14289. It is filed as cell-based. The procedure: as §1
A short description of series [20]: in vivo. Particulars: male, Sprague-Dawley, rat, po, 30 mg/kg.

≈ marks a conversion by molar mass, not a printed value. Some results are limits rather than exact numbers.

For the molecule `O=C(O)c1cn(C2CC2)c2cc(N3CCN(CC4CCOc5cc(Cl)ccc5C4=O)CC3)c(F)cc2c1=O` (centres unmarked) [Compound 6, 7-[4-(8-Chloro-5-oxo-2,3,4,5-tetrahydro-benzo[b]oxepin-4-ylmethyl)-piperazin-1-yl]-1-cyclopropyl-6-fluoro-4-oxo-1,4-dihydro-quinoline-3-carboxylic acid], the MIC came to 12.5 µM (≈ 6.75 µg/mL) in series [1]; 1.56 µM (≈ 0.844 µg/mL) in [2]; 0.781 µM (≈ 0.422 µg/mL) in series [3]; 6.25 µM (≈ 3.37 µg/mL) in series [4]; 6.25 µM (≈ 3.37 µg/mL) in series [5]; 6.25 µM (≈ 3.37 µg/mL) in series [6]. Moreover, the MIC in series [7] was 50 µM (≈ 27 µg/mL); in series [8] it was 50 µM (≈ 27 µg/mL); in [9] it was ≤ 0.391 µM; in series [10], 1.56 µM (≈ 0.844 µg/mL); in series [11], 0.781 µM (≈ 0.422 µg/mL); in series [12], 1.56 µM (≈ 0.844 µg/mL). Besides, the MIC in [13] was 0.781 µM (≈ 0.422 µg/mL); in [14] it was 1.56 µM (≈ 0.844 µg/mL); in [15], 25 µM (≈ 13.5 µg/mL); in [16], 0.781 µM (≈ 0.422 µg/mL); in series [17], ≤ 0.391 µM; in [18], 3.12 µM (≈ 1.69 µg/mL). The molecule further returned an MIC in [19] of 0.781 µM (≈ 0.422 µg/mL). This molecule also yielded an AUC in [20] of 7400 ± 1780 ng·h/mL. This molecule also came in with a peak concentration (Cmax) in series [20] of 2360 ± 1070 ng/mL. In series [20], the Tmax is 1.33 ± 0.53 h. The molecule also showed a half-life in series [20] of 99.6 ± 43.8 min.
For `CCn1cc(C(=O)O)c(=O)c2cc(F)c(N3CCNCC3)cc21` [Norfloxacin, reference compound], the MIC was > 50 µM in series [1]; 3.12 µM (≈ 0.998 µg/mL) in series [2]; 6.25 µM (≈ 2 µg/mL) in [3]; 25 µM (≈ 7.98 µg/mL) in series [4]; 6.25 µM (≈ 2 µg/mL) in series [5]; 25 µM (≈ 7.98 µg/mL) in series [6]. The MIC in series [7] was > 50 µM; in series [8], > 50 µM; in series [9] it was ≤ 0.391 µM; in [10] it was 6.25 µM (≈ 2 µg/mL); in series [11], 3.12 µM (≈ 0.998 µg/mL); in series [12], 3.12 µM (≈ 0.998 µg/mL). Also, the MIC in series [13] is 3.12 µM (≈ 0.998 µg/mL); in series [14], 3.12 µM (≈ 0.998 µg/mL); in series [15] it was > 50 µM; in series [16] it was 1.56 µM (≈ 0.499 µg/mL); in series [17] it was 0.781 µM (≈ 0.249 µg/mL); in series [18], 1.56 µM (≈ 0.499 µg/mL). In addition, the MIC in series [19] is 3.12 µM (≈ 0.998 µg/mL).
Consider `COc1ccc2c(c1)CCC(CN1CCN(c3cc4c(cc3F)c(=O)c(C(=O)O)cn4C3CC3)CC1)C2=O` (centres unmarked) [Compound 1, 1-Cyclopropyl-6-fluoro-7-[4-(6-methoxy-1-oxo-1,2,3,4-tetrahydro-naphthalen-2-ylmethyl)-piperazin-1-yl]-4-oxo-1,4-dihydro-quinoline-3-carboxylic acid], for which the MIC in series [1] is 12.5 µM (≈ 6.49 µg/mL); in series [2], 3.12 µM (≈ 1.62 µg/mL); in [3], 1.56 µM (≈ 0.812 µg/mL); in series [4] it was 12.5 µM (≈ 6.49 µg/mL); in series [5] it was 3.12 µM (≈ 1.62 µg/mL); in series [6], 12.5 µM (≈ 6.49 µg/mL). The MIC in series [7] is > 50 µM; in series [8], 25 µM (≈ 13 µg/mL); in series [9], ≤ 0.391 µM; in series [10] it was 6.25 µM (≈ 3.25 µg/mL); in series [11] it was 3.12 µM (≈ 1.62 µg/mL); in series [12], 1.56 µM (≈ 0.812 µg/mL). The MIC in series [13] is 1.56 µM (≈ 0.812 µg/mL); in series [14], 3.12 µM (≈ 1.62 µg/mL); in series [15], > 50 µM; in series [16], 1.56 µM (≈ 0.812 µg/mL); in series [17] it was 0.781 µM (≈ 0.406 µg/mL); in [18], 3.12 µM (≈ 1.62 µg/mL). The molecule further registered an MIC in series [19] of 1.56 µM (≈ 0.812 µg/mL). In addition, the AUC in [20] came out at 85800 ± 39900 ng·h/mL. In series [20], the Cmax was 10600 ± 2610 ng/mL. For the same molecule, the Tmax in series [20] is 4 h. Moreover, in [20], the half-life is 573 ± 170 min.

The record behind these values is patent US20080139574A1, “Novel quinoline derivatives” (CADILA HEALTHCARE LIMITED, priority 2006, published 2008).
